The values below come from patent US11168083B2, “Inhibitors of Plasma Kallikrein and uses thereof” (Takeda Pharmaceutical Company Limited, priority 2017, dated 2021).

human activated kallikrein enzyme, sequence (P03952 391-638): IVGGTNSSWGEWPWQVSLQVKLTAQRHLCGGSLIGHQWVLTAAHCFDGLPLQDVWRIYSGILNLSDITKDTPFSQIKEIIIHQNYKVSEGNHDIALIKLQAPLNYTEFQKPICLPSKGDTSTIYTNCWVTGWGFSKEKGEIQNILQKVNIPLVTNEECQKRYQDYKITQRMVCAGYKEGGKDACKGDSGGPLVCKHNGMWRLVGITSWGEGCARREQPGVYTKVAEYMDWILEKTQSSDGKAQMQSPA
human activated kallikrein enzyme, sequence (P03952 20-390 partner): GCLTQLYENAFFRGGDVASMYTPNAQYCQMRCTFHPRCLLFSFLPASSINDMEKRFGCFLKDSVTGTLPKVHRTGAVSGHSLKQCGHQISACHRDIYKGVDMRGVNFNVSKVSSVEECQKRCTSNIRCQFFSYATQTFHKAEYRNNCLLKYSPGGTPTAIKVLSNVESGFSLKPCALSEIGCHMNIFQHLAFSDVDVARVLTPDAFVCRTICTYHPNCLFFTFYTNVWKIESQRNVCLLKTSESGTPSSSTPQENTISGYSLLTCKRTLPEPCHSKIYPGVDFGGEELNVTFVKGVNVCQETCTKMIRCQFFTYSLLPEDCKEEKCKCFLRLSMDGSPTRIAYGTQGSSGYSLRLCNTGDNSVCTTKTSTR

This experiment addresses human activated kallikrein enzyme (Homo sapiens (Human), UniProt P03952). Kind of experiment: Inhibition of human activated kallikrein enzyme, fluorogenic peptide substrate assay (two formats). The format is biochemical. The note with it: Table 2; column head prints nM, ranges defined in μM; read-out: pKal EC50. How it is done:
The example compounds were evaluated for inhibition of the human activated kallikrein enzyme in two formats of an assay employing a fluorogenic peptide substrate. In one assay format, the concentrations of reagents were as follows: 20 mM Tris pH 7.5, 1 mM EDTA, 150 mM sodium chloride, 0.1% PEG-400, 0.1% Triton X-100, 500 pM activated kallikrein enzyme, 300 uM Pro-Phe-Arg-7-amido-4-methylcoumarin substrate. Prior to reaction initiation with substrate, enzyme and inhibitors were preincubated for 30 min at room temperature. After initiation with substrate, reactions were incubated for 10 min at room temperature and fluorescence emission at 460 nm from 380 nm excitation measured with a microplate reader. In another assay format, the concentrations of reagents were as follows: 20 mM Tris pH 7.5, 1 mM EDTA, 150 mM sodium chloride, 0.1% PEG-400, 0.1% Triton X-100, 5 pM activated kallikrein enzyme, 300 uM Pro-Phe-Arg-7-amido-4-methylcoumarin substrate. Prior to reaction initiation with substrate, enzyme and inhibitors were preincubated for 30 min at room temperature. After initiation with substrate, reactions were incubated for 18 hr at room temperature and fluorescence emission at 460 nm from 380 nm excitation measured with a microplate reader.
In the case of `CNC(=O)[C@H](CCCCNC(=N)N)NC(=O)c1csc([C@@H]2C[C@@H](N)CN2C(=O)c2cn3ccccc3n2)n1` [Compound 13, 2-((2S,4R)-4-amino-1-(imidazo[1,2-a]pyridine-2-carbonyl)pyrrolidin-2-yl)-N—((S)-6-guanidino-1-(methylamino)-1-oxohexan-2-yl)thiazole-4-carboxamide], the half-maximal effective concentration (EC50) fell in the range of 100 to 1000 nM.

For `CNC(=O)[C@@H](CCCCNC(=N)N)NC(=O)c1csc([C@@H]2C[C@@H](O)CN2C(=O)c2cn3cc(Cl)ccc3n2)n1` [Compound 39, 2-((2S,4R)-1-(6-Chloroimidazo[1,2-a]pyridine-2-carbonyl)-4-hydroxypyrrolidin-2-yl)-N—((R)-6-guanidino-1-(methylamino)-1-oxohexan-2-yl)thiazole-4-carboxamide], the concentration giving a half-maximal response (EC50) lay in the range of 5000 to 9900 nM.

On to `CNC(=O)[C@H](CCCCNC(=N)N)NC(=O)c1csc([C@@H]2C[C@@H](N)CN2C(=O)c2cc3ccc(C)cc3s2)n1` [Compound 65, 2-((2S,4R)-4-amino-1-(6-methylbenzo[b]thiophene-2-carbonyl)pyrrolidin-2-yl)-N—((S)-6-guanidino-1-(methylamino)-1-oxohexan-2-yl)thiazole-4-carboxamide], for which the EC50 lay within 100 to 1000 nM.

Consider `CNC(=O)[C@H](CCCCNC(=N)N)NC(=O)c1csc([C@@H]2C[C@@H](N)CN2C(=O)c2cnc3ccc(Cl)cc3c2)n1` [Compound 66, 2-((2S,4R)-4-amino-1-(6-chloroquinoline-3-carbonyl)pyrrolidin-2-yl)-N—((S)-6-guanidino-1-(methylamino)-1-oxohexan-2-yl)thiazole-4-carboxamide], for which the EC50 is 100 to 1000 nM.

In the case of `CNC(=O)[C@H](CCCCNC(=N)N)NC(=O)c1csc([C@@H]2C[C@@H](N)CN2C(=O)c2cc3cc(Cl)c(Cl)cc3s2)n1` [Compound 61, 2-((2S,4R)-4-amino-1-(5,6-dichlorobenzo[b]thiophene-2-carbonyl)pyrrolidin-2-yl)-N—((S)-6-guanidino-1-(methylamino)-1-oxohexan-2-yl)thiazole-4-carboxamide], the EC50 is 100 to 1000 nM.

Take `CNC(=O)[C@H](Cc1c[nH]cn1)NC(=O)c1csc([C@@H]2C[C@@H](N)CN2C(=O)c2cn3cc(Cl)ccc3n2)n1` [Compound 30, N—((S)-3-(1H-imidazol-4-yl)-1-(methylamino)-1-oxopropan-2-yl)-2-((2S,4R)-4-amino-1-(6-chloroimidazo[1,2-a]pyridine-2-carbonyl)pyrrolidin-2-yl)thiazole-4-carboxamide]: the EC50 is more than 9900 nM.

As for `CNC(=O)[C@@H](CCCCNC(=N)N)NC(=O)c1csc([C@@H]2CCCN2C(=O)c2cn3cc(Cl)ccc3n2)n1` [Compound 34, 2-((S)-1-(6-Chloroimidazo[1,2-a]pyridine-2-carbonyl)pyrrolidin-2-yl)-N—((R)-6-guanidino-1-(methylamino)-1-oxohexan-2-yl)thiazole-4-carboxamide], the concentration giving a half-maximal response (EC50) is more than 9900 nM.

Turning to `CNC(=O)[C@@H](CCCCNC(=N)N)NC(=O)c1csc([C@H]2C[C@@H](O)CN2C(=O)c2cn3cc(Cl)ccc3n2)n1` [Compound 10, 2-((2R,4R)-1-(6-Chloroimidazo[1,2-a]pyridine-2-carbonyl)-4-hydroxypyrrolidin-2-yl)-N—((R)-6-guanidino-1-(methylamino)-1-oxohexan-2-yl)thiazole-4-carboxamide], the EC50 was more than 9900 nM.

Take `CNC(=O)[C@H](CCCCNC(=N)N)NC(=O)c1csc([C@@H]2C[C@@H](N)CN2C(=O)c2cn3cc(C(F)(F)F)ccc3n2)n1` [Compound 19, 2-((2S,4R)-4-amino-1-(6-(trifluoromethyl)imidazo[1,2-a]pyridine-2-carbonyl)pyrrolidin-2-yl)-N—((S)-6-guanidino-1-(methylamino)-1-oxohexan-2-yl)thiazole-4-carboxamide]: the EC50 was not above 100 nM.

In the case of `CNC(=O)[C@H](CCCCNC(=N)N)NC(=O)c1csc([C@@H]2C[C@H](N)CN2C(=O)c2cn3cc(Cl)ccc3n2)n1` [Compound 36, 2-((2S,4S)-4-amino-1-(6-chloroimidazo[1,2-a]pyridine-2-carbonyl)pyrrolidin-2-yl)-N—((S)-6-guanidino-1-(methylamino)-1-oxohexan-2-yl)thiazole-4-carboxamide], the half-maximal effective concentration (EC50) was not above 100 nM.

For the compound `CNC(=O)[C@H](CCCCNC(=N)N)NC(=O)c1csc([C@@H]2C[C@@H](N)CN2C(=O)c2ccc3ncc(Cl)cc3c2)n1` [Compound 41, 2-((2S,4R)-4-amino-1-(3-chloroquinoline-6-carbonyl)pyrrolidin-2-yl)-N—((S)-6-guanidino-1-(methylamino)-1-oxohexan-2-yl)thiazole-4-carboxamide], the EC50 is 100 to 1000 nM.

Turning to `CNC(=O)[C@H](CCCCNC(=N)N)NC(=O)c1csc([C@@H]2C[C@@H](N)CN2C(=O)c2cn3cc(OC)ccc3n2)n1` [Compound 20, 2-((2S,4R)-4-amino-1-(6-methoxyimidazo[1,2-a]pyridine-2-carbonyl)pyrrolidin-2-yl)-N—((S)-6-guanidino-1-(methylamino)-1-oxohexan-2-yl)thiazole-4-carboxamide], the EC50 was in the range of 100 to 1000 nM.

In the case of `N[C@@H]1C[C@@H](c2nc(C(=O)NCc3n[nH]c4ccc(Cl)cc34)cs2)N(C(=O)c2cn3cc(Cl)ccc3n2)C1` [Compound 58, 2-((2S,4R)-4-amino-1-(6-chloroimidazo[1,2-a]pyridine-2-carbonyl)pyrrolidin-2-yl)-N-((5-chloro-1H-indazol-3-yl)methyl)thiazole-4-carboxamide], the EC50 lay within 5000 to 9900 nM.

`CNC(=O)[C@H](CCCCNC(=N)N)NC(=O)c1csc([C@H]2CCCN2C(=O)c2cn3cc(Cl)ccc3n2)n1` [Compound 3, 2-((R)-1-(6-Chloroimidazo[1,2-a]pyridine-2-carbonyl)pyrrolidin-2-yl)-N—((S)-6-guanidino-1-(methylamino)-1-oxohexan-2-yl)thiazole-4-carboxamide]: the EC50 is more than 9900 nM.

`CNC(=O)[C@H](CCCCNC(=N)N)NC(=O)c1csc([C@@H]2C[C@@H](N)CN2C(=O)c2ccc3nc(Cl)ccc3c2)n1` [Compound 67, 2-((2S,4R)-4-amino-1-(2-chloroquinoline-6-carbonyl)pyrrolidin-2-yl)-N—((S)-6-guanidino-1-(methylamino)-1-oxohexan-2-yl)thiazole-4-carboxamide]: the EC50 was 1000 to 5000 nM.

For `Nc1nccc2cc(CNC(=O)c3csc([C@@H]4C[C@@H](N)CN4C(=O)c4cn5cc(Cl)ccc5n4)n3)ccc12` [Compound 49, 2-((2S,4R)-4-amino-1-(6-chloroimidazo[1,2-a]pyridine-2-carbonyl)pyrrolidin-2-yl)-N-((1-aminoisoquinolin-6-yl)methyl)thiazole-4-carboxamide], the EC50 is not above 100 nM.

As for `CNC(=O)[C@H](CCCCNC(=N)N)NC(=O)c1csc([C@@H]2C[C@@H](N)CN2C(=O)c2cn3cc(I)ccc3n2)n1` [Compound 21, 2-((2S,4R)-4-amino-1-(6-iodoimidazo[1,2-a]pyridine-2-carbonyl)pyrrolidin-2-yl)-N—((S)-6-guanidino-1-(methylamino)-1-oxohexan-2-yl)thiazole-4-carboxamide], the 50% effective concentration (EC50) was not above 100 nM.

On to `Cc1cc2c(N)nccc2c(C)c1CNC(=O)c1csc([C@@H]2C[C@@H](N)CN2C(=O)c2cn3cc(Cl)ccc3n2)n1` [Compound 60, 2-((2S,4R)-4-amino-1-(6-chloroimidazo[1,2-a]pyridine-2-carbonyl)pyrrolidin-2-yl)-N-((1-amino-5,7-dimethylisoquinolin-6-yl)methyl)thiazole-4-carboxamide], for which the EC50 was not above 100 nM.

For `CNC(=O)[C@H](Cc1ccc(O)cc1)NC(=O)c1csc([C@@H]2C[C@@H](N)CN2C(=O)c2cn3cc(Cl)ccc3n2)n1` [Compound 32, 2-((2S,4R)-4-amino-1-(6-chloroimidazo[1,2-a]pyridine-2-carbonyl)pyrrolidin-2-yl)-N—((S)-3-(4-hydroxyphenyl)-1-(methylamino)-1-oxopropan-2-yl)thiazole-4-carboxamide], the EC50 is more than 9900 nM.

As for `NCc1ccc(CCNC(=O)c2csc([C@@H]3C[C@@H](N)CN3C(=O)c3cn4cc(Cl)ccc4n3)n2)cc1` [Compound 54, 2-((2S,4R)-4-amino-1-(6-chloroimidazo[1,2-a]pyridine-2-carbonyl)pyrrolidin-2-yl)-N-(4-(aminomethyl)phenethyl)thiazole-4-carboxamide], the EC50 lay within 1000 to 5000 nM.

As for `CNC(=O)[C@@H](CCCCNC(=N)N)NC(=O)c1csc([C@H]2C[C@@H](N)CN2C(=O)c2cn3cc(Cl)ccc3n2)n1` [Compound 2, 2-((2R,4R)-4-amino-1-(6-chloroimidazo[1,2-a]pyridine-2-carbonyl)pyrrolidin-2-yl)-N—((R)-6-guanidino-1-(methylamino)-1-oxohexan-2-yl)thiazole-4-carboxamide], the EC50 was more than 9900 nM.

For `N[C@@H]1C[C@@H](c2nc(C(=O)NCc3ncn4ccc(Cl)cc34)cs2)N(C(=O)c2cn3cc(Cl)ccc3n2)C1` [Compound 55, 2-((2S,4R)-4-amino-1-(6-chloroimidazo[1,2-a]pyridine-2-carbonyl)pyrrolidin-2-yl)-N-((7-chloroimidazo[1,5-a]pyridin-1-yl)methyl)thiazole-4-carboxamide], the EC50 fell in the range of 100 to 1000 nM.
